Data as given in publication PMC6503450, “Proteases Underground: Analysis of the Maize Root Apoplast Identifies Organ Specific Papain-Like Cysteine Protease Activity” (Frontiers in Plant Science, 2019).

Legend:
CP1B = target: T1, CP1B (Zea mays, UniProt K7TP58); experiment: fluorogenic substrate cleavage assay, apoplastic fluid of overexpressing N. benthamiana; format: cell-based
T1 construct: gene LOC100283284

CP1C = target: T2, CP1C (Zea mays, UniProt B4FS90); experiment: as above; format: cell-based; conditions: 10 uM Z-LR-AMC, pH 6, 0.5 mM DTT; covalent irreversible active-site inhibitor
T2 sequence (B4FS90 150-389 limits assumed): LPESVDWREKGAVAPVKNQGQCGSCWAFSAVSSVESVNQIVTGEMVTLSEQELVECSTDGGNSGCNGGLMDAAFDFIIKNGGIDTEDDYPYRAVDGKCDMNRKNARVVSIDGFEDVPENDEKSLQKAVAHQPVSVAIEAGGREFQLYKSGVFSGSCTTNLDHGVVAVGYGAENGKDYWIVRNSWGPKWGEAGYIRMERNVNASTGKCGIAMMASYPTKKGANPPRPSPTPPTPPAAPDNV

T1 sequence (K7TP58 135-372 limits assumed): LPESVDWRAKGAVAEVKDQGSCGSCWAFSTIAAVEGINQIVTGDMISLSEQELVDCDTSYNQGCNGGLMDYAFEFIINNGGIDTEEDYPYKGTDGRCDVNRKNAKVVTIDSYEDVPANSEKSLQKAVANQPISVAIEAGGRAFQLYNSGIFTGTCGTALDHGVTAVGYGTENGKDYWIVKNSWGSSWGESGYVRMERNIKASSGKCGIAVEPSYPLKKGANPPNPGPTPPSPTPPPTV

IC50 (CP1B): 10 ± 0.9 nM
IC50 (CP1C): 3.2 ± 0.2 nM
SMILES: CC(C)C[C@H](NC(=O)[C@H]1O[C@@H]1C(=O)O)C(=O)NCCCCN=C(N)N [E-64]
